The text below walks through data of ChEMBL document CHEMBL1201862, “PubChem BioAssay data set” (2004).

Among the test systems are DU-145; MDA-MB-435; HOP-92; A498; HT-29; NCI/ADR-RES; HCT-15; A549; OVCAR-3; RPMI-8226; SW-620; SK-MEL-28; CCRF-CEM; MDA-MB-231; SR; EKVX; SNB-19; HCT-116; SNB-75; NCI-H522.
What all share (assay): growth of human tumour cells (NCI), 48 h

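Test compounds were applied to cells in 96-well plates for 48 hours at 5 doses. GI50 = concentration required for 50% inhibition of growth.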 Activity calls are given as the source filed them. No stated cut-off is given here; in the data, active = GI50 up to about 1.1 µM and inactive = higher.

In the case of `C=CC(=O)N1C/C(=C\c2ccc([N+](=O)[O-])cc2)C(=O)/C(=C/c2ccc([N+](=O)[O-])cc2)C1`, the GI50 with DU-145 was 0.621 µM (active); with MDA-MB-435 it was 0.254 µM (active); in the assay with HOP-92, 0.811 µM (active); with A498, 0.28 µM (active); in the assay with HT-29, < 0.0176 µM (active); in the assay on NCI/ADR-RES, 0.258 µM (active). Moreover, the GI50 is 0.0253 µM with HCT-15; 0.427 µM (active) in the assay on A549; 0.132 µM (active) in the assay with OVCAR-3; 0.0193 µM (active) in the assay on RPMI-8226; 0.0304 µM (active) in the assay with SW-620; 0.275 µM (active) with SK-MEL-28. Besides, the GI50 with CCRF-CEM is 0.0565 µM (active); with MDA-MB-231, 0.161 µM (active); in the assay on SR, 0.289 µM (active); in the assay with EKVX, 0.243 µM (active); in the assay on SNB-19 it was 1.16 µM (inactive); with HCT-116 it was < 0.017 µM (active).

With `CCN(CC)CCO/N=C1\CC[C@H]2[C@@H]3CC=C4C[C@@H](O)CC[C@]4(C)[C@H]3CC[C@]12C`, the GI50 is 18.9 µM (inactive) with DU-145; 17.3 µM (inactive) in the assay with MDA-MB-435; 18.5 µM (inactive) in the assay with A498; 3.67 µM (inactive) in the assay with HT-29; 26.1 µM (inactive) with NCI/ADR-RES; 26.4 µM (inactive) with SNB-75. The GI50 in the assay on HCT-15 was 10.5 µM; in the assay with NCI-H522, 17.3 µM (inactive); in the assay on OVCAR-3, 19.5 µM (inactive); in the assay with RPMI-8226, 16.9 µM (inactive); in the assay on SW-620, 15.1 µM (inactive); with SK-MEL-28, 15.7 µM (inactive). Besides, the GI50 in the assay on MDA-MB-231 was 19.7 µM (inactive); in the assay with SR, 5.31 µM (inactive); with EKVX it was 35 µM (inactive); with SNB-19 it was 31.4 µM (inactive); in the assay with HCT-116, 15.6 µM (inactive).

As to `N=C(c1ccc2ccccc2c1)c1ccccc1Cc1ccccc1`, the GI50 in the assay on DU-145 is 29.8 µM (inactive); in the assay on MDA-MB-435, 22.7 µM (inactive); in the assay with HOP-92 it was 27.9 µM (inactive); in the assay with A498, 82.8 µM (inactive); in the assay on HT-29 it was 16.4 µM (inactive); with NCI/ADR-RES, 37.2 µM (inactive). The GI50 in the assay with HCT-15 is 28.8 µM; in the assay on A549, 27.7 µM (inactive); with OVCAR-3, 22.1 µM (inactive); with RPMI-8226, 38 µM (inactive); in the assay with SW-620, 37.8 µM (inactive); with SK-MEL-28, 62.4 µM (inactive). In addition, the GI50 in the assay with CCRF-CEM is 19.5 µM (inactive); in the assay on MDA-MB-231, > 100 µM (inactive); in the assay on SR, 19.9 µM (inactive); in the assay with EKVX, 17.3 µM (inactive); in the assay on SNB-19, > 100 µM (inactive); in the assay on HCT-116, 16.8 µM (inactive).

On to `OCCOCCN1CCN(c2nc(N3CCCC3)c3nc(Cl)c(NCc4ccccc4)nc3n2)CC1`, for which the GI50 in the assay on DU-145 was 11.9 µM (inactive); in the assay on MDA-MB-435, 11.7 µM (inactive); in the assay with HOP-92 it was 12.9 µM (inactive); in the assay on HT-29, 3.92 µM (inactive); with NCI/ADR-RES it was 14.5 µM (inactive); in the assay with SNB-75, 21 µM (inactive). Moreover, the GI50 with HCT-15 was 4.27 µM; in the assay with NCI-H522 it was 15.4 µM (inactive); in the assay with A549 it was 13 µM (inactive); with OVCAR-3, 13.8 µM (inactive); with RPMI-8226, 7.64 µM (inactive); with SW-620, 17.7 µM (inactive). Besides, the GI50 is 14.4 µM (inactive) in the assay with SK-MEL-28; 12.7 µM (inactive) with CCRF-CEM; 16.9 µM (inactive) with MDA-MB-231; 4.38 µM (inactive) in the assay on SR; 13.6 µM (inactive) in the assay on EKVX; 15.3 µM (inactive) in the assay on SNB-19. In addition, the GI50 in the assay on HCT-116 was 12.8 µM (inactive).

For the molecule `Cc1ccc([N+](=O)[O-])cc1S(=O)(=O)Nc1ccc(C(=O)/C=C/c2ccccc2)cc1`, the GI50 in the assay with DU-145 is 15.8 µM (inactive); with MDA-MB-435, 19.6 µM (inactive); with HOP-92, 15.9 µM (inactive); in the assay with HT-29, 25.4 µM (inactive); with NCI/ADR-RES, 22 µM (inactive); in the assay on SNB-75 it was 17.3 µM (inactive). The GI50 was 19.5 µM in the assay with HCT-15; 20.2 µM (inactive) in the assay with NCI-H522; 23.3 µM (inactive) in the assay with A549; 15.7 µM (inactive) in the assay with OVCAR-3; 11.5 µM (inactive) in the assay with RPMI-8226; 24.7 µM (inactive) in the assay with SW-620. Also, the GI50 was 23.4 µM (inactive) with SK-MEL-28; 20 µM (inactive) in the assay with CCRF-CEM; 16.9 µM (inactive) with MDA-MB-231; 22.1 µM (inactive) in the assay with SR; 18 µM (inactive) in the assay with EKVX; 18.6 µM (inactive) in the assay with SNB-19. Moreover, the GI50 in the assay on HCT-116 is 15.7 µM (inactive).

Consider `Cc1n[nH]c(C(F)(F)F)c1/N=N/N(C)C`, for which the GI50 in the assay on DU-145 was 7.69 µM (inactive); with MDA-MB-435, 14.5 µM (inactive); with HOP-92, 8.32 µM (inactive); in the assay on A498, > 100 µM (inactive); with HT-29, 4.98 µM (inactive); with NCI/ADR-RES it was 7.13 µM (inactive). The GI50 in the assay on HCT-15 is 7.26 µM; in the assay on NCI-H522, 1.37 µM (inactive); in the assay on A549, 18.4 µM (inactive); in the assay with OVCAR-3, 5.16 µM (inactive); in the assay with RPMI-8226 it was 2.14 µM (inactive); with SW-620, > 100 µM (inactive). Further, the GI50 with SK-MEL-28 was 17.9 µM (inactive); with CCRF-CEM, 2.63 µM (inactive); in the assay with MDA-MB-231 it was 11.8 µM (inactive); with SR, 4.47 µM (inactive); in the assay on EKVX, 2.25 µM (inactive); in the assay with SNB-19 it was 15.1 µM (inactive). Also, the GI50 with HCT-116 is 1.93 µM (inactive).

Consider `C=C1CC(C#N)(C#N)[C@@H]2CC3CCCC3[C@H]12.C=C1CC(C#N)(C#N)[C@H]2C3CCCC3C[C@@H]12` (some centres undefined), for which the GI50 is 38.4 µM (inactive) in the assay on DU-145; 19.3 µM (inactive) with MDA-MB-435; 11.3 µM (inactive) with HOP-92; 19.7 µM (inactive) with A498; 14 µM (inactive) with HT-29; 23.9 µM (inactive) in the assay on NCI/ADR-RES. The GI50 in the assay with HCT-15 is 15.9 µM; in the assay with A549, 10 µM (inactive); in the assay with OVCAR-3, 19.3 µM (inactive); in the assay on SW-620, 15 µM (inactive); in the assay with SK-MEL-28, 21.2 µM (inactive); in the assay with CCRF-CEM, 10 µM (inactive). Also, the GI50 was 22 µM (inactive) in the assay on MDA-MB-231; 14.6 µM (inactive) in the assay with SR; 24.2 µM (inactive) in the assay on EKVX; 29.8 µM (inactive) with SNB-19; 4.99 µM (inactive) with HCT-116.

With `COc1ccc(/C=C(\C#N)c2nc(-c3cc4ccccc4oc3=O)cs2)cc1`, the GI50 is 65.2 µM (inactive) in the assay on DU-145; 37.8 µM (inactive) in the assay on MDA-MB-435; 18.3 µM (inactive) with HOP-92; 41.3 µM (inactive) in the assay with HT-29; 27.2 µM (inactive) with NCI/ADR-RES; 23.2 µM (inactive) in the assay on SNB-75. Further, the GI50 was 51.6 µM in the assay with HCT-15; 19.4 µM (inactive) in the assay on NCI-H522; 32.3 µM (inactive) with A549; 42.9 µM (inactive) in the assay on RPMI-8226; 19.7 µM (inactive) in the assay with SW-620; 27.5 µM (inactive) in the assay with SK-MEL-28. Moreover, the GI50 in the assay on CCRF-CEM is > 100 µM (inactive); in the assay with MDA-MB-231 it was 14.8 µM (inactive); in the assay with SR it was > 100 µM (inactive); in the assay on EKVX, 35 µM (inactive); in the assay on SNB-19 it was 16.4 µM (inactive); in the assay with HCT-116, 32.3 µM (inactive).

For the molecule `Cc1ccc(C(=O)Cn2c(C(=O)/C=C/c3cccs3)nc3ccccc32)cc1`, the GI50 with DU-145 was 82 µM (inactive); in the assay with MDA-MB-435, 21.3 µM (inactive); in the assay on HOP-92, 93.5 µM (inactive); in the assay with A498 it was 32.1 µM (inactive); in the assay on HT-29 it was 38.5 µM (inactive); with NCI/ADR-RES, 23.2 µM (inactive). The GI50 is > 100 µM (inactive) in the assay with SNB-75; 31.3 µM in the assay with HCT-15; 32.6 µM (inactive) in the assay on A549; 31.3 µM (inactive) with OVCAR-3; 21.7 µM (inactive) in the assay on RPMI-8226; 34.2 µM (inactive) in the assay with SW-620. In addition, the GI50 in the assay on SK-MEL-28 was 68.5 µM (inactive); with CCRF-CEM, 11.5 µM (inactive); with MDA-MB-231, 71.3 µM (inactive); in the assay with SR, 6.68 µM (inactive); with SNB-19, 58.1 µM (inactive); in the assay with HCT-116 it was 43.4 µM (inactive).

Take `CNC(=S)N/N=C1\C(=O)N(CN2CCOCC2)c2ccc([N+](=O)[O-])cc21`: the GI50 in the assay on DU-145 was 13.7 µM (inactive); in the assay with MDA-MB-435, 60.3 µM (inactive); in the assay on HOP-92, 21.3 µM (inactive); in the assay on A498, 24.5 µM (inactive); in the assay with HT-29, 40.6 µM (inactive); in the assay with NCI/ADR-RES it was 16.3 µM (inactive). Also, the GI50 in the assay on HCT-15 is 12.9 µM; in the assay with A549 it was 31.9 µM (inactive); with OVCAR-3 it was 17.5 µM (inactive); in the assay on RPMI-8226 it was 21.2 µM (inactive); in the assay with SW-620, 28.2 µM (inactive); in the assay on SK-MEL-28 it was 20.7 µM (inactive). Further, the GI50 was 23.5 µM (inactive) with CCRF-CEM; 11.9 µM (inactive) in the assay with MDA-MB-231; 53.3 µM (inactive) with SR; 15.6 µM (inactive) with EKVX; 21.9 µM (inactive) in the assay on SNB-19; 15.4 µM (inactive) with HCT-116.

For `COC1=C(Br)[C@H](O)[C@@]2(C=C1Br)CC(C(=O)NCCCOc1c(Br)cc(C(O)CNC(C)=O)cc1Br)=NO2` (some centres undefined) [APLYSINAMISINE III], the GI50 was > 10 µM (inactive) with DU-145; 2.18 µM (inactive) with MDA-MB-435; > 10 µM (inactive) in the assay with A498; > 10 µM (inactive) in the assay on HT-29; > 10 µM (inactive) with NCI/ADR-RES; 2.79 µM (inactive) in the assay on SNB-75. Moreover, the GI50 in the assay on HCT-15 was greater than 10 µM; in the assay on NCI-H522, 4.17 µM (inactive); in the assay with A549, > 10 µM (inactive); in the assay on OVCAR-3, > 10 µM (inactive); in the assay on RPMI-8226, > 10 µM (inactive); in the assay on SW-620 it was > 10 µM (inactive). Besides, the GI50 was > 10 µM (inactive) in the assay on SK-MEL-28; > 10 µM (inactive) with CCRF-CEM; > 10 µM (inactive) in the assay on MDA-MB-231; 0.00518 µM (active) in the assay with SR; > 10 µM (inactive) in the assay with SNB-19; > 10 µM (inactive) in the assay with HCT-116.
